The results in this text go back to PMC7933930, “Development of a small molecule that corrects misfolding and increases secretion of Z α1‐antitrypsin” (EMBO Molecular Medicine, 2021).

Molecules are shown by their SMILES.

One assay concerns the target Histamine H1 (Homo sapiens, UniProt P35367). Kind of assay: Off‐target panel: Histamine H1. It is filed as cell-based. To be noted: Antagonist, read-out: Mean (PXC50). On the procedure:
(§1) GSK716 selectivity and PK properties were profiled in order to investigate the suitability of GSK716 for progression into in vivo studies and the potential for taking it forward as a clinical candidate for testing in humans. Since GSK716 results in loss of inhibitory activity of α1‐antitrypsin, the effect of the compound was assessed on other closely related serpins. […] Furthermore, there were no off‐target effects in a panel of assays considered predictive of known safety liabilities that precluded further development of GSK716 (Table EV1).

For the next assay, the target named is T1, Serotonin 5HT2C (Homo sapiens, UniProt P28335).
T1 sequence (P28335 33-458): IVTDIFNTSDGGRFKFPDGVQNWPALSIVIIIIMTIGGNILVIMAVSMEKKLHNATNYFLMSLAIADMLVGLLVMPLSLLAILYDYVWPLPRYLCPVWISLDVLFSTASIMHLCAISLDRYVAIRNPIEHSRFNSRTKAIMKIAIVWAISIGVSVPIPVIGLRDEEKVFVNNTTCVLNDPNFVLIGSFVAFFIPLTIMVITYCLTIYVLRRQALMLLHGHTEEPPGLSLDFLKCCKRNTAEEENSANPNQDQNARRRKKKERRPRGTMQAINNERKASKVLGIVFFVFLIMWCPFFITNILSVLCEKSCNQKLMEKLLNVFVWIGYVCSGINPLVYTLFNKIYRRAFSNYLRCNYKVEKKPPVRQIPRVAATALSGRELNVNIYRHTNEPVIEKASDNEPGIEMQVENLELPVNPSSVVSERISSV
Nature of the assay: Off‐target panel: Serotonin 5HT2C (DRX). The assay is classed as cell-based. The procedure:
as §1

The target in assay [1] is polymers of Z α1‐antitrypsin (Homo sapiens, UniProt P01009, E366K). Nature of the assay: Binding to Z α1‐antitrypsin polymers (fluorescence polarisation). The procedure: Figure 1 Characteristics of the lead series of chiral hydroxy‐carboxamides identified from the ELT screen • The structure of GSK425, identified from the ELT screen, and the derived compound GSK716 obtained through a structure‐based design pipeline. • The degree of polymerisation of Z α1‐antitrypsin after 72 h at 37°C, as determined by an end‐point immunoassay using the 2C1 monoclonal antibody, in varying concentrations of compound (shown in panel A). […] Data presented as mean ± SD. • The compound bound to monomeric but not polymeric Z α1‐antitrypsin (Z α1‐AT) as reported by fluorescence polarisation of an Alexa‐488‐labelled variant of GSK716. • Representative curves reporting the interaction of different concentrations of GSK716 with Z α1‐antitrypsin based on changes in intrinsic tryptophan fluorescence.
Kinetic parameters of GSK716 binding to M, Z, S (Glu264Val) and Baghdad (Ala336Pro) (Haq et al, 2016) α1‐antitrypsin were measured by detecting intrinsic tryptophan fluorescence of the protein (excitation at 280 nm and detection of emission at 320 nm) on a stopped flow apparatus (Applied Photophysics) (Kim & Yu, 1996; Dafforn et al, 1999). […]
In general terms: Fluorescence polarisation rises when a labelled molecule tumbles more slowly, as on binding a larger partner.

The subject of a further assay is M and Z α1‐antitrypsin. Nature of the assay: Heat‐induced oligomerisation, constant temperature, non‐denaturing PAGE. The assay is classed as biochemical, human. To be noted: constant‐temperature experiment, 4 h, 48 to 65°C. An excerpt:
Polymerisation of α1‐antitrypsin involves transition through a transient intermediate state known as M*, that is readily populated by the Z variant (Dafforn et al, 1999; Knaupp et al, 2010). The M* conformational ensemble appears to be a distinct species between the native state conformation and that of the final polymer. One of the hallmarks of M* is its recognition by environment‐sensitive fluorescent reporter dyes. Thermal shift assays that make use of the dye SYPRO Orange report the stability of the protein native state against heat‐induced unfolding. […] Native state stability can also be probed by equilibrium unfolding using chemical denaturants, where a peak in bis‐ANS fluorescence corresponds with a maximally populated unfolding intermediate (James & Bottomley, 1998). […] The association of GSK716 induced a marked quenching and blue‐shift of the α1‐antitrypsin intrinsic tryptophan fluorescence spectrum (Fig 4D, inset). The rate of change in fluorescence during association of 10µM GSK716 was proportional to the propensity of α1‐antitrypsin mutants to form polymers in vivo: inert (M), mild (S), moderate (Baghdad) and severe (Z) α1‐antitrypsin (Fig 4D, top and bottom). […]

Another assay deals with PI3Kg (Homo sapiens, UniProt P48736). Nature of the assay: Off‐target panel: PI3Kg. It is filed as biochemical. To be noted: Inhibition, read-out: Mean (PXC50). On the procedure:
as §1

polymers of Z α1‐antitrypsin, sequence (P01009 25-418 E366K): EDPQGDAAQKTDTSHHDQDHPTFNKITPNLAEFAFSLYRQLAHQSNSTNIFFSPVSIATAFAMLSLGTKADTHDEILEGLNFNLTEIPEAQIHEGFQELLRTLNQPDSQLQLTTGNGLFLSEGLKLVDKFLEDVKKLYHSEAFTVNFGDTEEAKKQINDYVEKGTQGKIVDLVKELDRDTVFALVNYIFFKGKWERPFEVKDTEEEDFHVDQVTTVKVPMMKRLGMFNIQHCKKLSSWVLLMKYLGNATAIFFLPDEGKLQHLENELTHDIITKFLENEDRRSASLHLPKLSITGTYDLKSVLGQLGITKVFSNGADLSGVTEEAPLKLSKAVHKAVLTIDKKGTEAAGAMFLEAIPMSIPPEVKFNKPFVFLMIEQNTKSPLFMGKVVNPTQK
Histamine H1, sequence (P35367 whole entry): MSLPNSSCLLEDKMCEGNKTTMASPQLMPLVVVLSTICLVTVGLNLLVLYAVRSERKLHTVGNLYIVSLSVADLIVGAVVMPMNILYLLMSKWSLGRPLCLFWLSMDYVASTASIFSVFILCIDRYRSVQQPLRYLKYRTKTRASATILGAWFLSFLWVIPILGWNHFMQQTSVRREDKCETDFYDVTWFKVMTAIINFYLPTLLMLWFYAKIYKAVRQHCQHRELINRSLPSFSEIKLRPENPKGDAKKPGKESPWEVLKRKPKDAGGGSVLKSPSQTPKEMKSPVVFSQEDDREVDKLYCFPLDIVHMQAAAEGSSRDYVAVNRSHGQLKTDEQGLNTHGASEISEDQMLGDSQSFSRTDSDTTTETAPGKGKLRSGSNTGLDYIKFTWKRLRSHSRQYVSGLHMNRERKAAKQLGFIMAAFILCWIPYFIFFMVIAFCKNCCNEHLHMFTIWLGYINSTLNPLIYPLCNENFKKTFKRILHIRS
PI3Kg, sequence (P48736 whole entry): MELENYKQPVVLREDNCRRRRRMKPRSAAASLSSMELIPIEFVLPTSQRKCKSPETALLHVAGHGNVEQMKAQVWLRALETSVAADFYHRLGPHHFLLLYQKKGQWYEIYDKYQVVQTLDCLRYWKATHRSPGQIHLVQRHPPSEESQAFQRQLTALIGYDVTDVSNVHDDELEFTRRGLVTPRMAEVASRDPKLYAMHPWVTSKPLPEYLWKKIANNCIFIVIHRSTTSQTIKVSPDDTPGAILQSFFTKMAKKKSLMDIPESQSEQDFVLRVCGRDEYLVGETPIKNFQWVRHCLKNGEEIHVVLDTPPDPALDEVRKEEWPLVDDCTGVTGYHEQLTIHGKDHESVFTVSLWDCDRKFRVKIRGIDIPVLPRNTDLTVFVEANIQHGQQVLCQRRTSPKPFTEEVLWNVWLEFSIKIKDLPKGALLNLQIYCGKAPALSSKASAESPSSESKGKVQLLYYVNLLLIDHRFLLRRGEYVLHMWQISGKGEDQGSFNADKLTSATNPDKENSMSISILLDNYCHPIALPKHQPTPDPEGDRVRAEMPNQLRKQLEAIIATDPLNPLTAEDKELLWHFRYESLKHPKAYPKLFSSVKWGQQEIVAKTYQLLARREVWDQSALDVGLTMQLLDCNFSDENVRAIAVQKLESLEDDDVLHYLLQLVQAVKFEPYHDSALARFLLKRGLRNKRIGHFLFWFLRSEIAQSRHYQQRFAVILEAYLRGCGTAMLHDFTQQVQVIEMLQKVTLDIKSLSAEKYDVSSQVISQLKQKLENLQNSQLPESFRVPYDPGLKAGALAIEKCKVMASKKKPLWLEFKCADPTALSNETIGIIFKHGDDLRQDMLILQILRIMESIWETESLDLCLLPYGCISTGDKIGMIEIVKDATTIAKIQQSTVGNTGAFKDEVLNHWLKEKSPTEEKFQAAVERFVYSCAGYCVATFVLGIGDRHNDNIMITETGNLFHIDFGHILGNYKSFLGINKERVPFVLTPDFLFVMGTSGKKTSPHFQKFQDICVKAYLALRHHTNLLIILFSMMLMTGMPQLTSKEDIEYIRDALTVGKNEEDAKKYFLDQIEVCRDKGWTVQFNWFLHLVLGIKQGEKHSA

One may read the EC50 as the midpoint of the concentration-response curve. Lower therefore signals higher potency in that assay. As to `CCC[C@@H](NC(=O)c1cccc2c1CC(=O)N2)[C@@H](O)c1cccc(F)c1C` [GSK716], the IC50 on Histamine H1 is over 25.1 µM; against Serotonin 5HT2C, 50.1 µM; on PI3Kg it was over 31.6 µM. Besides, the EC50 at Serotonin 5HT2C was over 100 µM. Also, the “binding to polymers of Z α1‐antitrypsin” value in assay [1] is on record as “lack of binding”. For the same molecule, the “temperature of oligomer generation” value with M and Z α1‐antitrypsin was “oligomers were generated at higher temperatures in the presence of the compound than in its absence”.
